According to ChEMBL document CHEMBL4616597, “Could 5'-N and S ProTide analogues work as prodrugs of antiviral agents?” (Bioorg Med Chem Lett, 2020):
Activity calls are given as the source filed them. The rule behind the calls is not given here.

Experiments:
[1] = system: Tick-borne encephalitis virus; assay: Antiviral activity against TBEV; type: functional, organism-based
Zika virus = assay: Antiviral activity against Zika virus; type: functional, organism-based
Dengue virus = assay: Antiviral activity against Dengue virus; type: functional, organism-based
West Nile virus = assay: Antiviral activity against West Nile virus; type: functional, organism-based
Coxsackievirus = assay: Antiviral activity against CVB3; type: functional, organism-based; conditions: B3
[2] = system: Human immunodeficiency virus; assay: Antiviral activity against HIV; type: functional, organism-based
[3] = Prodrug activation in human HepG2 cell extract assessed as metabolite formation at 100 uM measured after 4 hrs by HPLC analysis; type: ADME, cell-based; conditions: hepg2, 4 h
[4] = Prodrug activation assessed as carboxypeptidase Y (unknown origin) mediated cleavage of diastereoisomer measured after 5 mins by P-NMR spectroscopy; conditions: human
[5] = Prodrug activation assessed as carboxypeptidase Y (unknown origin) mediated cleavage of diastereoisomer measured after 120 mins by P-NMR spectroscopy; conditions: human, 2 h
[6] = Prodrug activation assessed as carboxypeptidase Y (unknown origin) mediated metabolite formation at 3.1 ppm measured after 5 mins by P-NMR spectroscopy; type: ADME; conditions: human
[7] = Prodrug activation assessed as carboxypeptidase Y (unknown origin) mediated intermediate metabolite formation by P-NMR spectroscopy; type: ADME; conditions: human
[8] = Prodrug activation assessed as carboxypeptidase Y (unknown origin) mediated cleavage at phenyl region resulting in formation of (2S)-2-[[hydroxy(phenoxy)phosphoryl]amino]propanoic acid measured after 120 mins by 13C-APT spectra analysis; conditions: human, 2 h
[9] = Prodrug activation assessed as carboxypeptidase Y (unknown origin) mediated cleavage at ribose sugar region resulting in formation of 2R,3R,4R,5S)-2-(6-aminopurin-9-yl)-3-methyl-5-(sulfanylmethyl)tetrahydrofuran-3,4-diol measured after 120 mins by 13C-APT spectra analysis; conditions: human, 2 h
[10] = Prodrug activation assessed as carboxypeptidase Y (unknown origin) mediated signal shift at 13.5 ppm by P-NMR spectroscopy; conditions: human
[11] = Prodrug activation assessed as carboxypeptidase Y (unknown origin) mediated signal shift at 13.2 ppm by P-NMR spectroscopy; conditions: human
[12] = Prodrug activation assessed as carboxypeptidase Y (unknown origin) mediated metabolite formation at 3.3 ppm by P-NMR spectroscopy; type: ADME; conditions: human
[13] = Prodrug activation assessed as carboxypeptidase Y (unknown origin) mediated (2S)-2-((((2R,3R,4R,5R)-5-(6-amino-9H-purin-9-yl)-3,4-dihydroxy-4-methyltetrahydrofuran-2-yl)methylamino)(phenoxy)phosphorylamino)propanoic acid intermediate formation measured after 5 mins by P-NMR spectroscopy; conditions: human
[14] = Prodrug activation assessed as carboxypeptidase Y (unknown origin) mediated formation of metabolite from (2S)-2-((((2R,3R,4R,5R)-5-(6-amino-9H-purin-9-yl)-3,4-dihydroxy-4-methyltetrahydrofuran-2-yl)methylamino)(phenoxy)phosphorylamino)propanoic acid intermediate at 3.3 ppm by P-NMR spectroscopy; type: ADME; conditions: human

Row | SMILES | Activity [1] | Activity (Zika virus) | Activity (Dengue virus) | Activity (West Nile virus) | Activity (Coxsackievirus) | Activity [2] | Drug metabolism [3] | Activity [4] | Activity [5] | Drug metabolism [6] | Drug metabolism [7] | Drug metabolism [8] | Drug metabolism [9] | Activity [10] | Activity [11] | Drug metabolism [12] | Drug metabolism [13] | Drug metabolism [14]
1 | COC(=O)[C@H](C)NP(=O)(Oc1ccccc1)SC[C@H]1O[C@@H](n2cnc3c(N)ncnc32)[C@](C)(O)[C@@H]1O (some centres not stated) | inactive | inactive | inactive | inactive | inactive | inactive | Metabolite_Detected | Active | Not Active | Metabolite_Detected | Metabolite_Notdetected | Metabolite_Detected | Metabolite_Detected |  |  |  |  | 
2 | COC(=O)[C@H](C)NP(=O)(NC[C@H]1O[C@@H](n2cnc3c(N)ncnc32)[C@](C)(O)[C@@H]1O)Oc1ccccc1 (some centres not stated) | inactive | inactive | inactive | inactive | inactive | inactive | Metabolite_Detected | Not Active | Not Active |  |  |  |  | Active | Active | Metabolite_Detected | Metabolite_Detected | Metabolite_Detected
